“Also recorded” adds a separate entry of the source.
Columns and labels:
[1] = Hygroscopicity and physical (solid form) stability; format: physicochemical; conditions: for conversion to another solid form: aqueous solution, atmosphere, dehydration or recrystallization; for physical stability: ambient conditions
[2] = Aqueous solubility at room temperature; format: physicochemical
H4 receptor = H4 receptor (Homo sapiens, UniProt Q9H3N8); conditions: as described in U.S. Pat. No. 7,507,737, 8,343,989 and others; cited from earlier work
H4 receptor, sequence (Q9H3N8 whole entry): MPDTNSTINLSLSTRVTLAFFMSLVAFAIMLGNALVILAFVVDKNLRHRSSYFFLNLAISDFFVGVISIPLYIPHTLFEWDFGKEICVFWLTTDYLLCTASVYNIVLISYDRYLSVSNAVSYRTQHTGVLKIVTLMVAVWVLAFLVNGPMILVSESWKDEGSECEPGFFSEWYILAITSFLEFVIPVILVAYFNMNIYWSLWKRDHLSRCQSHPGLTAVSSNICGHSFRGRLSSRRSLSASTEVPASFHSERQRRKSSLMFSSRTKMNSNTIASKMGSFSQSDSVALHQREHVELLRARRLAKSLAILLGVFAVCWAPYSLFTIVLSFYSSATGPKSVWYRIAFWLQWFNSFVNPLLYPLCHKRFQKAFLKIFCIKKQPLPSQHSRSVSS

SMILES | hygroscopicity [1] | relative humidity above which it converts to Compound 3 [1] | conversion to another solid form [1] | aqueous solubility [2] | physical stability [1] | H4 receptor modulator activity (H4 receptor)
Cc1cc(C)c2nc(-c3cnc(NCCCC4CCN(C)CC4)nc3C)[nH]c2c1.O=C(O)C(O)C(O)C(=O)O [Compound 2.1, 5-(4,6-dimethyl-1H-benzimidazol-2-yl)-4-methyl-N-[3-(1-methyl-4-piperidinyl)-propyl]-2-pyrimidinamine 2,3-dihydroxybutanedioate (1:0.5)] | hygroscopic | above 70 % relative humidity | forms the tetrahydrate Compound 3 in aqueous solution | about 1.1 g/ml |  | 
Cc1cc(C)c2nc(-c3cnc(NCCCC4CCN(C)CC4)nc3C)[nH]c2c1.O=C(O)C(O)C(O)C(=O)O [Compound 3, 5-(4,6-dimethyl-1H-benzimidazol-2-yl)-4-methyl-N-[3-(1-methyl-4-piperidinyl)-propyl]-2-pyrimidinamine 2,3-dihydroxybutanedioate tetrahydrate (1:0.5:4)] |  |  | converts to Compound 2.2 upon dehydration by heating or in low relative humidity; also recorded: no conversion of Compound 3 to other forms was detected | about 4.1 mg/ml | stable under ambient conditions | 
Cc1cc(C)c2nc(-c3cnc(NCCCC4CCN(C)CC4)nc3C)[nH]c2c1 [Compound 2, [5-(4,6-Dimethyl-1H-benzoimidazol-2-yl)-4-methyl-pyrimidin-2-yl]-[3-(1-methyl-piperidin-4-yl)-propyl]-amine] |  |  |  |  |  | has H4 receptor modulator activity
Cc1cc(C)c2nc(-c3cnc(NCCCC4CCN(C)CC4)nc3C)[nH]c2c1 [Compound 2.2, 5-(4,6-dimethyl-1H-benzimidazol-2-yl)-4-methyl-N-[3-(1-methyl-4-piperidinyl)-propyl]-2-pyrimidinamine 2,3-dihydroxybutanedioate (1:0.5)] | absorbs water readily |  | converts to Compound 3 when exposed to the atmosphere |  | physically stable only when stored in a tightly sealed vial at ambient condition | 

Source: patent US8859575B2, “Benzoimidazol-2-yl pyrimidine modulators of the histamine h4 receptor” (Janssen Pharmaceutica NV, priority 2013, dated 2014)
